Data from patent US10294202B2, “Pyrrolidinones as herbicides” (FMC Corporation, priority 2013, dated 2019).

Legend:
wheat (winter wheat) = assay: Test C pre-/postemergence herbicide test; format: in vivo, Triticum aestivum; settings: Preemergence; for Wheat plant response rating: 31 g ai/ha, scale 0 to 100, 0 is no effect and 100 is complete control
Outline: (§1)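 Test compounds, formulated in a surfactant-containing non-phytotoxic solvent blend, are applied to seeded loam/sand soil (preemergence) and to young plants at the 1- to 4-leaf stage in peat-based medium (postemergence). Plants stay 13 to 15 days under greenhouse conditions, then are scored visually relative to controls, 0 = no effect, 100 = complete control.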

johnsongrass = assay: Test C pre-/postemergence herbicide test; format: in vivo, Sorghum halepense; settings: Preemergence; for Johnsongrass plant response rating: 31 g ai/ha, scale 0 to 100, 0 is no effect and 100 is complete control
Outline: as §1

rice = assay: Test B flooded paddy test; format: in vivo, Oryza sativa; settings: 250 g ai/ha, Flood; scale of 0 to 100 where 0 is no effect and 100 is complete control
Outline: (§2)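 Plants grown to 2-leaf stage; pots flooded 3 cm above soil and compound applied directly into paddy water, depth held throughout. Visual rating against untreated controls after 13 to 15 days in greenhouse, 0 (no effect) to 100 (complete control).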

wheat = assay: Test A pre-/postemergence herbicide test; format: in vivo, Triticum aestivum; settings: for Wheat plant response rating: Preemergence, visual rating on 0 to 100 scale (0 no effect, 100 complete control)
Outline: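 Planted in loam–sand blend; treated the same day preemergence by directed soil spray, while separately grown plants at one- to two-leaf stage got postemergence spray. Compared visually with untreated controls after approximately 10 days; 100 means complete control.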

crabgrass, large = assay: Test C pre-/postemergence herbicide test; format: in vivo, Digitaria sanguinalis; settings: Preemergence; for Crabgrass, Large plant response rating: 31 g ai/ha
Outline: as §1

sedge, umbrella = assay: Test B flooded paddy test; format: in vivo, Cyperus difformis; settings: 250 g ai/ha, Flood; scale of 0 to 100 where 0 is no effect and 100 is complete control
Outline: as §2

blackgrass = assay: Test C pre-/postemergence herbicide test; format: in vivo, Alopecurus myosuroides; settings: Preemergence; for Blackgrass plant response rating: 31 g ai/ha
Outline: as §1

velvetleaf = assay: Test C pre-/postemergence herbicide test; format: in vivo, Abutilon theophrasti; settings: Preemergence; for Velvetleaf plant response rating: 31 g ai/ha, scale 0 to 100, 0 is no effect and 100 is complete control
Outline: as §1

oilseed rape = assay: Test C pre-/postemergence herbicide test; format: in vivo, Brassica napus; settings: Preemergence
Outline: as §1

barnyardgrass = assay: Test B flooded paddy test; format: in vivo, Echinochloa crus-galli; settings: 250 g ai/ha, Flood; scale of 0 to 100 where 0 is no effect and 100 is complete control
Outline: as §2

pigweed = assay: Test C pre-/postemergence herbicide test; format: in vivo, Amaranthus retroflexus; settings: Preemergence; for Pigweed plant response rating: 31 g ai/ha, scale 0 to 100, 0 is no effect and 100 is complete control
Outline: as §1

ragweed = assay: Test C pre-/postemergence herbicide test; format: in vivo, Ambrosia elatior; settings: Preemergence; for Ragweed plant response rating: 31 g ai/ha, scale 0 to 100, 0 is no effect and 100 is complete control
Outline: as §1

[1] = 125 g ai/ha, scale 0 to 100 (0 no effect, 100 complete control)
[2] = Postemergence, 125 g ai/ha, 0 to 100 scale, 0 no effect, 100 complete control
[3] = Postemergence, 500 g ai/ha, 0 to 100 scale (0 no effect, 100 complete control)
[4] = preemergence, 500 g ai/ha, 0 to 100 scale
[5] = scale 0 to 100, 0 is no effect and 100 is complete control
[6] = scale 0 to 100 (0 no effect, 100 complete control)
[7] = 250 g ai/ha, scale 0 to 100 (0 no effect, 100 complete control)

SMILES | Plant response rating, Wheat (wheat (winter wheat); 62 g ai/ha, scale 0 to 100) | Plant response rating, Wheat (wheat (winter wheat); [1]) | Plant response rating, Johnsongrass (johnsongrass; 62 g ai/ha, scale 0 to 100) | Plant response rating, Johnsongrass (johnsongrass; [1]) | Plant response rating, Rice (rice) | Plant response rating, Wheat (wheat; [2]) | Plant response rating, Wheat (wheat; [3]) | Wheat plant response rating (wheat; 125 g ai/ha) | Plant response rating, Wheat (wheat; [4]) | Plant response rating, Crabgrass, Large (crabgrass, large; 62 g ai/ha, scale 0 to 100) | Plant response rating, Crabgrass, Large (crabgrass, large; [1]) | Plant response rating, Sedge, Umbrella (sedge, umbrella) | Plant response rating, Blackgrass (blackgrass; 62 g ai/ha, scale 0 to 100) | Plant response rating, Blackgrass (blackgrass; [1]) | Plant response rating, Velvetleaf (velvetleaf; 62 g ai/ha, scale 0 to 100) | Plant response rating, Velvetleaf (velvetleaf; [1]) | Plant response rating, Barnyardgrass (barnyardgrass) | Plant response rating, Pigweed (pigweed; 62 g ai/ha, scale 0 to 100) | Plant response rating, Pigweed (pigweed; [1]) | Plant response rating, Ragweed (ragweed; 62 g ai/ha, scale 0 to 100) | also measured
O=C1NCC(c2ccc(F)c(C(F)(F)F)c2)C1C(=O)Nc1ccccc1C(F)(F)F (racemic) [Compound 78] | 30 | 60 | 0 | 15 | 0 | 40 | 50 | 0 | 0 | 98 | 98 | 0 | 75 | 75 | 15 | 20 | 0 | 40 | 40 |  | Wheat plant response rating (wheat (winter wheat)): 10; Plant response rating (scale of 0 to 100), Wheat (wheat (winter wheat); 250 g ai/ha): 90; Johnsongrass plant response rating (johnsongrass): 0; Plant response rating (scale of 0 to 100), Johnsongrass (johnsongrass; 250 g ai/ha): 60; Crabgrass, Large plant response rating (crabgrass, large; [5]): 95; Plant response rating (scale of 0 to 100), Crabgrass, Large (crabgrass, large; 250 g ai/ha): 98; Blackgrass plant response rating (blackgrass; [5]): 30; Plant response rating (scale of 0 to 100), Blackgrass (blackgrass; 250 g ai/ha): 85; Velvetleaf plant response rating (velvetleaf): 15; Plant response rating (scale of 0 to 100), Velvetleaf (velvetleaf; 250 g ai/ha): 20; Oilseed Rape plant response rating (oilseed rape; 31 g ai/ha, scale 0 to 100, 0 is no effect and 100 is complete control): 0; Plant response rating, Oilseed Rape (oilseed rape; 62 g ai/ha, scale 0 to 100): 10; Plant response rating, Oilseed Rape (oilseed rape; [1]): 10; Plant response rating (scale of 0 to 100), Oilseed Rape (oilseed rape; 250 g ai/ha): 75; Pigweed plant response rating (pigweed): 0; Plant response rating (scale of 0 to 100), Pigweed (pigweed; 250 g ai/ha): 40
O=C1NCC(c2ccc3c(c2)OC(F)(F)O3)C1C(=O)Nc1cccc(F)c1F (centres unmarked) [Compound 62] | 0 | 0 | 10 | 30 | 0 | 20 | 60 | 0 | 0 | 90 | 95 | 80 | 45 | 80 | 20 | 25 | 20 | 40 | 70 | 15 | Plant response rating, Ragweed (ragweed; [1]): 45; Crabgrass, Large plant response rating (crabgrass, large; [6]): 85; Plant response rating, Crabgrass, Large (crabgrass, large; [7]): 98; Blackgrass plant response rating (blackgrass; [6]): 0; Plant response rating, Blackgrass (blackgrass; [7]): 80
O=C1NCC(c2cccc(Br)c2)C1C(=O)Nc1cccc(F)c1F (centres unmarked) [Compound 64] | 5 | 15 | 40 | 75 | 15 | 0 | 40 | 0 | 0 | 90 | 95 | 40 | 5 | 5 | 10 | 10 | 0 | 0 | 30 | 0 | Plant response rating, Ragweed (ragweed; [1]): 30; Crabgrass, Large plant response rating (crabgrass, large; [6]): 85; Plant response rating, Crabgrass, Large (crabgrass, large; [7]): 95; Blackgrass plant response rating (blackgrass; [6]): 0; Plant response rating, Blackgrass (blackgrass; [7]): 30
O=C1NCC(c2cccc(Br)c2)C1C(=O)Nc1ccccc1F (centres unmarked) [Compound 66] | 0 | 5 |  |  | 0 | 0 | 30 | 0 | 20 | 95 | 98 | 50 | 0 | 0 | 20 | 25 | 0 | 0 | 0 | 20 | Wheat plant response rating (wheat (winter wheat)): 0; Johnsongrass plant response rating (johnsongrass): 30; Ragweed plant response rating (ragweed): 10; Plant response rating, Ragweed (ragweed; [1]): 25; Crabgrass, Large plant response rating (crabgrass, large; [5]): 90; Plant response rating, Crabgrass, Large (crabgrass, large; [7]): 98; Blackgrass plant response rating (blackgrass; [5]): 0; Plant response rating, Blackgrass (blackgrass; [7]): 20; Velvetleaf plant response rating (velvetleaf): 10; Pigweed plant response rating (pigweed): 0
O=C1NCC(c2cccc(OC(F)(F)F)c2)C1C(=O)Nc1cccc(F)c1F (centres unmarked) [Compound 68] | 5 | 30 | 35 | 40 | 25 | 0 | 20 | 0 | 20 | 90 | 95 | 70 | 60 | 60 | 10 | 10 | 40 | 75 | 85 | 0 | Wheat plant response rating (wheat (winter wheat)): 0; Johnsongrass plant response rating (johnsongrass): 0; Ragweed plant response rating (ragweed): 0; Plant response rating, Ragweed (ragweed; [1]): 0; Crabgrass, Large plant response rating (crabgrass, large; [5]): 90; Plant response rating, Crabgrass, Large (crabgrass, large; [7]): 95; Blackgrass plant response rating (blackgrass; [5]): 0; Plant response rating, Blackgrass (blackgrass; [7]): 80; Velvetleaf plant response rating (velvetleaf): 10; Pigweed plant response rating (pigweed): 45
